Reference: patent US11285156B2, “Substituted piperazines as KRAS G12C inhibitors” (Amgen Inc., priority 2018, dated 2022)
Where two headings read alike, the source gives them in different places.

What was measured:
[1] = tested on: Phosphorylation of ERK1/2 in A549 cells; assay: Phospho-ERK1/2 MSD assay in A549 cells; type: cell-based; conditions: read-out: p-ERK IC50 (2 h, A549; μM), 2 h compound treatment, A549 cells, EGF stimulated
Method in brief: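 Dose-response treatment lasted 2 or 4 h in RPMI 1640/10% FBS at 37 °C. EGF-stimulated (10 ng/mL, 10 min) ERK1/2 phosphorylation was then quantified in cell lysates with a Meso Scale Discovery phospho-ERK1/2 assay.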

[2] = tested on: Phosphorylation of ERK1/2 in MIA PaCa-2 cells; assay: Phospho-ERK1/2 MSD assay in MIA PaCa-2 cells; type: cell-based; conditions: read-out: p-ERK IC50 (2 h, MiaPaCa-2; μM), 2 h compound treatment, MIA PaCa-2 cells, EGF stimulated
Method in brief: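 Phospho-ERK1/2 measured by MSD electrochemiluminescence kit in RIPA lysates of MIA PaCa-2 cells. Cells were treated with compound titrations for 2 or 4 h at 37 °C, 5% CO2, followed by a 10 min pulse of 10 ng/mL EGF.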

[3] = molecular target: GDP-bound KRAS protein (aa 1-169), containing both G12C and C118A amino acid substitutions (Homo sapiens (Human), UniProt P01116, C118A/G12C); assay: Coupled nucleotide exchange assay (SOS-mediated nucleotide exchange, AlphaScreen); type: biochemical; conditions: 5 min compound pre-incubation; for IC50: read-out: Coupled exchange IC50 (5 min; μM)
Chain of GDP-bound KRAS protein (aa 1-169), containing both G12C and C118A amino acid substitutions (P01116 other isoform, or with tags, fused parts or gaps G12C/C118A): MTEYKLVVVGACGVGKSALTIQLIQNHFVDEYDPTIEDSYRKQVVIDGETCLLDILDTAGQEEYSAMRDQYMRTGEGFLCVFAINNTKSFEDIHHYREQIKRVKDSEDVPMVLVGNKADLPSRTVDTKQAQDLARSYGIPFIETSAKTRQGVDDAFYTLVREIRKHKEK

Structure (SMILES)	IC50 ([1]; Homo sapiens, A549, 2 h) [µM]	IC50 ([2]; Homo sapiens, MIA PaCa-2, 2 h) [µM]	IC50 [3] [µM]	IC50 [1] [µM]	IC50 [2] [µM]	Coupled exchange IC50 (5 min; μM) [3] [µM]
C=CC(=O)N1C[C@H](C)N(c2nc(=O)n(-c3c(CN4CCC4)cccc3C(C)C)c3nc(-c4ccccc4F)c(Cl)cc23)C[C@H]1C [Example 80-12, 1-[2-(azetidin-1-ylmethyl)-6-isopropyl-phenyl]-6-chloro-4-[(2S,5R)-2,5-dimethyl-4-prop-2-enoyl-piperazin-1-yl]-7-(2-fluorophenyl)pyrido[2,3-d]pyrimidin-2-one]	> 7.5	0.074	0.064	–	–	–
C=CC(=O)N1C[C@H](C)N(c2nc(=O)n(-c3c(C(C)C)nc(NCCN(C)C)nc3C(C)C)c3nc(-c4ccccc4F)c(Cl)cc23)C[C@H]1C [Example 107-4, 6-Chloro-1-[2-[2-(dimethylamino)ethylamino]-4,6-diisopropyl-pyrimidin-5-yl]-4-[(2S,5R)-2,5-dimethyl-4-prop-2-enoyl-piperazin-1-yl]-7-(2-fluorophenyl)pyrido [2,3-d]pyrimidin-2-one]	> 7.5	0.085	0.051	–	–	–
C=CC(=O)N1C[C@H](C)N(c2nc(=O)n(-c3c(C)ccnc3C(C)C)c3nc(C4=CCCCCC4)c(Cl)cc23)C[C@H]1C (atropisomer, axis not shown; (M)) [Example 92-10, (M)-6-Chloro-7-(cyclohepten-1-yl)-4-[(2S,5R)-2,5-dimethyl-4-prop-2-enoyl-piperazin-1-yl]-1-(2-isopropyl-4-methyl-3-pyridyl)pyrido [2,3-d]pyrimidin-2-one]	> 7.5	0.367	0.059	–	–	–
C=CC(=O)N1CCN(c2nc(=O)n(CC(C)(C)C)c3nc(-c4ccccc4F)c(Cl)cc23)CC1CC#N (single isomer, unassigned) [Example 145-1-1, 2-[4-[6-Chloro-1-(2,2-dimethylpropyl)-7-(2-fluorophenyl)-2-oxo-pyrido[2,3-d]pyrimidin-4-yl]-1-prop-2-enoyl-piperazin-2-yl]acetonitrile]	–	–	1.71	5.53	1.3	–
C=CC(=O)N1C[C@H](C)N(c2nc(=O)n(-c3c(C)cc(P(C)(C)=O)cc3C(C)C)c3nc(-c4ccccc4F)c(Cl)cc23)C[C@H]1C (single isomer, unassigned) [Example 102-7-1]	> 7.5	1.06	0.181	–	–	–
C=CC(=O)N1C[C@H](C)N(c2nc(=O)n(-c3c(N)ncnc3C(C)C)c3nc(-c4c(N)cccc4F)c(Cl)cc23)C[C@H]1C [Example 192, 4-((2S,5R)-4-Acryloyl-2,5-dimethylpiperazin-1-yl)-7-(2-amino-6-fluorophenyl)-1-(4-amino-6-isopropylpyrimidin-5-yl)-6-chloropyrido[2,3-d]pyrimidin-2(1H)-one]	> 7.5	0.161	–	–	–	0.029
C=CC(=O)N1C[C@H](C)N(c2nc(=O)n(-c3c(C)ccnc3C(C)C)c3nc(-c4cc(O)ccc4F)c(Cl)cc23)C[C@H]1C (atropisomer, axis not shown; (M)) [Example 92-34, (M)-6-Chloro-4-[(2S,5R)-2,5-dimethyl-4-prop-2-enoyl-piperazin-1-yl]-7-(2-fluoro-5-hydroxy-phenyl)-1-(2-isopropyl-4-methyl-3-pyridyl)pyrido [2,3-d]pyrimidin-2-one]	> 7.5	0.06	0.054	–	–	–
C=CC(=O)N1C[C@H](C)N(c2nc(=O)n(-c3c(C)ccnc3C(C)C)c3nc(-c4ccccc4S(C)(=O)=O)c(Cl)cc23)C[C@H]1C [Example 210, 4-((2S,5R)-4-Acryloyl-2,5-dimethylpiperazin-1-yl)-6-chloro-1-(2-isopropyl-4-methylpyridin-3-yl)-7-(2-(methylsulfonyl)phenyl)pyrido[2,3-d]pyrimidin-2(1H)-one]	> 7.5	0.039	–	–	–	0.049
C=CC(=O)N1C[C@H](C)N(c2nc(=O)n(-c3c(C)cc(CN(C)C)cc3C(C)C)c3nc(-c4ccccc4F)c(F)cc23)C[C@H]1C [Example 80-20, 1-[4-[(Dimethylamino)methyl]-2-isopropyl-6-methyl-phenyl]-4-[(2S,5R)-2,5-dimethyl-4-prop-2-enoyl-piperazin-1-yl]-6-fluoro-7-(2-fluorophenyl)pyrido[2,3-d]pyrimidin-2-one]	> 7.5	–	0.763	–	0.735	–
C=CC(=O)N1C[C@H](C)N(c2nc(=O)n(-c3c(C)nc(F)nc3C(C)C)c3nc(-c4ccccc4F)c(Cl)cc23)C[C@H]1C (single isomer, unassigned) [Example 200]	> 7.5	0.094	–	–	–	0.03
C=CC(=O)N1C[C@H](C)N(c2nc(=O)n(-c3c(C(C)C)cccc3[S+](C)[O-])c3nc(-c4ccccc4F)c(Cl)cc23)C[C@H]1C (single isomer, unassigned) [Example 209-1]	> 7.5	0.116	–	–	–	0.088
C=CC(=O)N1C[C@H](C)N(c2nc(=O)n(-c3c(C)ccnc3C(C)C)c3nc(-c4ccccc4C4CC4)c(Cl)cc23)C[C@H]1C (atropisomer, axis not shown; (M)) [Example 92-4, (M)-6-Chloro-7-(2-cyclopropylphenyl)-4-[(2S,5R)-2,5-dimethyl-4-prop-2-enoyl-piperazin-1-yl]-1-(2-isopropyl-4-methyl-3-pyridyl)pyrido [2,3-d]pyrimidin-2-one]	> 7.5	0.042	0.044	–	–	–
C=CC(=O)N1C[C@H](C)N(c2nc(=O)n(-c3c(C)ccnc3C(C)C)c3nc(-c4cc(F)ccc4F)c(Cl)cc23)C[C@H]1C (atropisomer, axis not shown; (M)) [Example 92-65, (M)-6-Chloro-7-(2,5-difluorophenyl)-4-[(2S,5R)-2,5-dimethyl-4-prop-2-enoyl-piperazin-1-yl]-1-(2-isopropyl-4-methyl-3-pyridyl)pyrido [2,3-d]pyrimidin-2-one]	> 7.5	0.046	0.066	–	–	–
C=CC(=O)N1C[C@H](C)N(c2nc(=O)n(-c3c(C)ccnc3C(C)C)c3nc(-c4cccc(F)c4C)c(Cl)cc23)C[C@H]1C (atropisomer, axis not shown; (M)) [Example 92-59, (M)-6-Chloro-4-[(2S,5R)-2,5-dimethyl-4-prop-2-enoyl-piperazin-1-yl]-7-(3-fluoro-2-methyl-phenyl)-1-(2-isopropyl-4-methyl-3-pyridyl)pyrido [2,3-d]pyrimidin-2-one]	> 7.5	0.034	0.028	–	–	–
C=CC(=O)N1C[C@H](C)N(c2nc(=O)n(-c3c(C)ccnc3C(C)C)c3nc(-c4ccccc4NC(=O)C4CC4)c(Cl)cc23)C[C@H]1C (atropisomer, axis not shown; (M)) [Example 129-6, (M)-N-[2-[6-Chloro-4-[(2S,5R)-2,5-dimethyl-4-prop-2-enoyl-piperazin-1-yl]-1-(2-isopropyl-4-methyl-3-pyridyl)-2-oxo-pyrido[2,3-d]pyrimidin-7-yl]phenyl]cyclopropanecarboxamide]	> 7.5	0.058	0.06	–	–	–
C=CC(=O)N1C[C@H](C)N(c2nc(=O)n(-c3c(C(C)C)ncnc3C(C)C)c3nc(-c4ccccc4C(F)(F)F)c(Cl)cc23)C[C@H]1C [Example 172, 6-Chloro-1-(4,6-diisopropylpyrimidin-5-yl)-4-[(2S,5R)-2,5-dimethyl-4-prop-2-enoyl-piperazin-1-yl]-7-[2-(trifluoromethyl)phenyl]pyrido[2,3-d]pyrimidin-2-one]	> 7.5	0.099	0.08	–	–	–
C=CC(=O)N1CCN(c2nc(=O)n(-c3c(C(C)C)ccnc3C(C)C)c3nc(-c4ccccc4C)c(Cl)cc23)[C@@H](C)C1 (single isomer, unassigned) [Example 125-10]	–	–	0.032	> 7.5	0.068	–
C=CC(=O)N1C[C@H](C)N(c2nc(=O)n(-c3c(C(C)C)nc(N)nc3C(C)C)c3nc(-c4ccccc4F)c(Cl)cc23)C[C@H]1C [Example 229, 4-((2S,5R)-4-Acryloyl-2,5-dimethylpiperazin-1-yl)-1-(2-amino-4,6-diisopropylpyrimidin-5-yl)-6-chloro-7-(2-fluorophenyl)pyrido[2,3-d]pyrimidin-2(1H)-one]	> 7.5	0.032	0.071	–	–	–
C=CC(=O)N1C[C@H](C)N(c2nc(=O)n(-c3c(C)cc([S+](C)[O-])cc3C(C)C)c3nc(-c4ccccc4C)c(Cl)cc23)C[C@H]1C (single isomer, unassigned) [Example 213-2]	> 7.5	0.069	–	–	–	0.072
C=CC(=O)N1C[C@H](C)N(c2nc(=O)n(-c3c(C)cc(CN(C)C)cc3C(C)C)c3nc(-c4ccccc4F)c(Cl)cc23)C[C@H]1C (single isomer, unassigned) [Example 121-3]	> 7.5	0.027	–	–	–	0.066
C=CC(=O)N1C[C@H](C)N(c2nc(=O)n(-c3ccc(S(C)(=O)=O)cc3C(C)C)c3nc(-c4ccccc4F)c(Cl)cc23)C[C@H]1C [Example 208, 4-((2S,5R)-4-Acryloyl-2,5-dimethylpiperazin-1-yl)-6-chloro-7-(2-fluorophenyl)-1-(2-isopropyl-4-(methylsulfonyl)phenyl)pyrido[2,3-d]pyrimidin-2(1H)-one]	> 7.5	0.14	–	–	–	0.231
